# Results as given in ChEMBL document CHEMBL3885861, “Open TG-GATES”.
# Organism: Rattus norvegicus
# Experiment: Open TG-GATES - Regimen: Single
# Type: toxicity, organism-based, Sprague-Dawley
# Set-up: regimen Single, gender Male, age 6 weeks
# Conditions: in vivo, po, 60 mg/kg, route gavage, dose level Low; for KIDNEY_L / KIDNEY_R / KIDNEY_TOTAL: tissue Kidney; for LIVER: tissue Liver
compound,measurement,setting,value
CC(C)Cc1ccc(C(C)C(=O)O)cc1 (stereo not given) [IBUPROFEN],TC,"6 h, tissue Plasma",72.6 mg/dL
same,TG,"6 h, tissue Plasma",56 mg/dL
same,TP,"6 h, tissue Plasma",5.1 g/dL
same,gamma-GTP,"6 h, tissue Plasma",1.2 IU/L
same,TERMINAL_BW,9 h,199.8 g
same,Bas,"9 h, tissue Blood",0%
same,Eos,"9 h, tissue Blood",0.6%
same,Fbg,"9 h, tissue Blood",275 mg/dL
same,Hb,"9 h, tissue Blood",12.8 g/dL
same,Ht,"9 h, tissue Blood",38.1%
same,Lym,"9 h, tissue Blood",76.6%
same,MCH,"9 h, tissue Blood",21.5 pg
same,MCHC,"9 h, tissue Blood",33.6%
same,MCV,"9 h, tissue Blood",64.1 fL
same,Mono,"9 h, tissue Blood",2.6%
same,Neu,"9 h, tissue Blood",19.2%
same,PT,"9 h, tissue Blood",15.8 s
same,Plat,"9 h, tissue Blood",116.8 x10_4/uL
same,RBC,"9 h, tissue Blood",594.6 x10_4/ul
same,Ret,"9 h, tissue Blood",8.2%
same,WBC,"9 h, tissue Blood",66.8 x10_2/uL
same,KIDNEY_L,9 h,1 g
same,KIDNEY_R,9 h,1 g
same,KIDNEY_TOTAL,9 h,1.9 g
same,LIVER,9 h,8.2 g
same,ALP,"9 h, tissue Plasma",1788.8 IU/L
same,ALT,"9 h, tissue Plasma",40.8 IU/L
same,AST,"9 h, tissue Plasma",72.4 IU/L
same,CRE,"9 h, tissue Plasma",0.1 mg/dL
same,DBIL,"9 h, tissue Plasma",0.006 mg/dL
same,GLC,"9 h, tissue Plasma",174.8 mg/dL
same,K,"9 h, tissue Plasma",4.4 meq/L
same,LDH,"9 h, tissue Plasma",208.4 IU/L
same,Na,"9 h, tissue Plasma",139.8 meq/L
same,RALB,"9 h, tissue Plasma",2.9 g/dL
same,TBIL,"9 h, tissue Plasma",0.026 mg/dL
same,TC,"9 h, tissue Plasma",67 mg/dL
same,TG,"9 h, tissue Plasma",58.6 mg/dL
same,TP,"9 h, tissue Plasma",5.3 g/dL
same,gamma-GTP,"9 h, tissue Plasma",1 IU/L
same,TERMINAL_BW,24 h,206.8 g
same,APTT,"24 h, tissue Blood",21.7 s
same,Bas,"24 h, tissue Blood",0%
same,Eos,"24 h, tissue Blood",1%
same,Fbg,"24 h, tissue Blood",309.8 mg/dL
same,Ht,"24 h, tissue Blood",40.6%
same,Lym,"24 h, tissue Blood",78.2%
same,MCH,"24 h, tissue Blood",21.6 pg
same,MCHC,"24 h, tissue Blood",34.1%
same,MCV,"24 h, tissue Blood",63.2 fL
same,Mono,"24 h, tissue Blood",3.2%
same,Neu,"24 h, tissue Blood",17%
same,PT,"24 h, tissue Blood",16.5 s
same,Plat,"24 h, tissue Blood",112 x10_4/uL
same,RBC,"24 h, tissue Blood",643.6 x10_4/ul
same,Ret,"24 h, tissue Blood",6.8%
same,WBC,"24 h, tissue Blood",119.2 x10_2/uL
same,KIDNEY_L,24 h,0.9 g
same,KIDNEY_R,24 h,0.9 g
same,KIDNEY_TOTAL,24 h,1.8 g
same,LIVER,24 h,9.8 g
same,ALP,"24 h, tissue Plasma",1457.4 IU/L
same,ALT,"24 h, tissue Plasma",46.6 IU/L
same,AST,"24 h, tissue Plasma",76.8 IU/L
same,CRE,"24 h, tissue Plasma",0.2 mg/dL
same,DBIL,"24 h, tissue Plasma",0 mg/dL
same,GLC,"24 h, tissue Plasma",183.6 mg/dL
same,IP,"24 h, tissue Plasma",7.7 mg/dL
same,K,"24 h, tissue Plasma",4.5 meq/L
same,LDH,"24 h, tissue Plasma",274 IU/L
same,Na,"24 h, tissue Plasma",141.6 meq/L
same,PL,"24 h, tissue Plasma",142.2 mg/dL
same,RALB,"24 h, tissue Plasma",3 g/dL
same,TBIL,"24 h, tissue Plasma",0.004 mg/dL
same,TC,"24 h, tissue Plasma",76.6 mg/dL
